Measured values taken from patent US20260374739A1, “SMALL MOLECULAR WEIGHT CHEMICAL COMPOUND TO ANTAGONIZE EPH-EPHRIN TETRAMERIZATION AND INHIBIT BIDIRECTIONAL SIGNALING” (THE BOARD OF REGENTS OF THE UNIVERSITY OF TEXAS SYSTEM, priority 2022, published 2026).
pIC50: −log10 of the molar value. Several values for one entry are separate records, joined by “and”; a condition that tells them apart may be missing. Equal values may be shown once. Marks after values point to notes of the source that are not given here.

How the values were obtained:
EphrinB2-EphB2 [1] = molecular target: T1, EphrinB2-EphB2 (Homo sapiens, UniProt P29323); assay: Octet tetramerization inhibition, immobilized human EphrinB2 binding to 50 nM soluble human EphB2
T1 construct: soluble human EphB1-His, EphB2-His, and EphB4-His ectodomains; commercially available human EphrinB1-Fc (EB1), EphrinB2-Fc (EB2), and EphrinB3-Fc (EB3) ectodomain proteins; purchased
T1 sequence (P29323 19-543 limits assumed): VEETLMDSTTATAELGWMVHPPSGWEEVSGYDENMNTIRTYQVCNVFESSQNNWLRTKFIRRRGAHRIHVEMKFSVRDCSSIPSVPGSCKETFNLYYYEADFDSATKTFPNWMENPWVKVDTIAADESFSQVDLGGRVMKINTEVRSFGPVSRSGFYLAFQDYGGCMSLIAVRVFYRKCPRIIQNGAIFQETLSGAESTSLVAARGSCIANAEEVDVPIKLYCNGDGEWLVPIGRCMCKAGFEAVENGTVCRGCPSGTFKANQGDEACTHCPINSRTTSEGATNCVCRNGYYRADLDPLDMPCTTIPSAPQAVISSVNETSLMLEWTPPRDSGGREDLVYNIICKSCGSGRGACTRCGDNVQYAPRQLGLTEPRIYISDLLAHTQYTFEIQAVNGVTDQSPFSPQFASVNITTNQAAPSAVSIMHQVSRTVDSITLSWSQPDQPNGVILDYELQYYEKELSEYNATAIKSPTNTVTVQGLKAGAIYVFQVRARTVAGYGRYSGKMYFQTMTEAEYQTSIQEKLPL

EphrinB2-EphB1 = molecular target: T2, EphrinB2-EphB1 (Homo sapiens, UniProt P54762); assay: Octet 80 sec association/500 sec dissociation, immobilized human EphrinB2-Fc binding to soluble human EphB1-His; conditions: immobilized human EphrinB2, 25 nM soluble human EphB1; for EphB1 Inhibition Percent, Inhibition of Association ONLY: at 3.2 μM and 80 seconds; for EphB1 Inhibition Percent, Inhibition of Association-Dissociation: at 3.2 μM and 580 seconds
T2 construct: soluble human EphB1-His, EphB2-His, and EphB4-His ectodomains; commercially available human EphrinB1-Fc (EB1), EphrinB2-Fc (EB2), and EphrinB3-Fc (EB3) ectodomain proteins; purchased
T2 sequence (P54762 18-540 limits assumed): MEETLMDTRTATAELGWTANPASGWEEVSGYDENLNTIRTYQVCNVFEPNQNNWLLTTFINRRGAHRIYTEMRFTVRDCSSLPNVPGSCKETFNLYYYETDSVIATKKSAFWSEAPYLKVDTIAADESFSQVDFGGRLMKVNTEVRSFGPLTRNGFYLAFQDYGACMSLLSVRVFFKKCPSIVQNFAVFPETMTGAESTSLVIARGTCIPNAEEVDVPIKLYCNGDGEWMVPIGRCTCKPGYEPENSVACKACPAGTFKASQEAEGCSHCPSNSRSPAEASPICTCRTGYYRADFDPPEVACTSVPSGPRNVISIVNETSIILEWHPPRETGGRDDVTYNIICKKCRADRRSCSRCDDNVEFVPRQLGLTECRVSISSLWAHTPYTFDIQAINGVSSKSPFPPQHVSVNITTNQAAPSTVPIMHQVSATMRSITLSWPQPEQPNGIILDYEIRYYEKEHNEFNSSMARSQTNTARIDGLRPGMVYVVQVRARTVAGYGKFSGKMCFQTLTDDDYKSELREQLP
Procedure: (§1) In another experiment, whether certain A20 analogs might have specificity for different Eph receptors was tested. An Octet RED384 system was used to obtain biophysical ON-OFF binding data (association-dissociation) for the three different human EphrinB2-EphB1, EphrinB2-EphB2, and EphrinB2-EphB4 protein-protein interactions and to assess the effect of A20 chemicals on the binding kinetics.
(§2) FIGS. 72A-72C show three example Octet sensorgram response traces for the immobilized human EphrinB2 ectodomain protein binding to soluble forms of the human EphB1, EphB2, and EphB4 ectodomain proteins, in the absence or presence of an A20 chemical (buffer conditions are always PBSTD:PBS with 0.05% Tween-20, 1% DMSO, and +/− indicated chemical). After loading EphrinB2-Fc protein to Octet AHC biosensors, washing, and obtaining stable baseline measurements in the appropriate PBSTD (either with or without indicated chemical), the sensors are placed in its buffer that also contains the indicated soluble EphB protein for the association step (0-80″), and then returned to its buffer for the dissociation step (81″-580″). In each figure (FIGS. 72A-72C), a sensorgram run using 10 μM of the 2×HCl salt form of A20-I is compared to the no compound control run to exemplify the maximum level of reduced response signal typically obtained with a potent A20 chemical.
(§3) Because the response levels during the dissociation step plateau for the EphrinB2-EphB2 and EphrinB2-EphB1 interactions by the first 80″, AUCs were also calculated for run data encompassing the first 160″ of each experiment to account for both the 80″ association data (red asterisks) and the first 80″ of dissociation data (marked by green line and asterisks).
(§4) The selectivity of another A20 analog (a 3×HCL salt form of compound BQPB4) in comparison to previously tested compound, A20-1, was tested as described in Example 27 above.
(§5) Further to the experiments listed above, a series of dose-response experiments were conducted to determine the IC50 of a selected A20 chemical (A20-1) on the kinetics of human EphrinB2 ligand ectodomain protein binding to its cognate human EphB1, EphB2, and EphB4 receptor ectodomain proteins. FIG. 74A-74C are representative sensorgrams showing the effect of 0, 0.1, 0.2, 0.4, 0.8, 1.6, and 3.2 μM, concentrations of the 2×HCl salt of A20-I along with a 10 μM max standard (also A20-1) on three different Ephrin-EphB interactions (e.g., EphB1 in FIG. 74A, EphB2 in FIG. 74B and EphB4 in FIG. 74C). […] Additional IC50 values were determined at specific timepoints, at 75″ into the association step and at 55″ into the dissociation step (135″).
(§6) All absolute and relative IC50 values are provided in the Table 6 below, where absolute are based off the full binding sensorgram traces, and relative are based off of the max control traces.
(§7) In another experiment, the % inhibition for various A20 analog chemicals against the three different EphrinB2-EphB protein interactions was determined. Specifically, the percent inhibition for immobilized human EphrinB2-Fc binding to 25 nM soluble human EphB1-His (FIG. 76A, enlarged in FIG. 76D), EphB2-His (FIG. 76B, enlarged in FIG. 76E), and EphB4-His (FIG. 76C, enlarged in FIG. 76F) with 3511-I, 8009-9255, QTM-Br, A19, A19-NO2, and IM (all at 3.2 μM) was determined.

EphrinB2-EphB2 [2] = molecular target: T1, EphrinB2-EphB2; assay: Octet 80 sec association/500 sec dissociation, immobilized human EphrinB2-Fc binding to soluble human EphB2-His; conditions: immobilized human EphrinB2, 25 nM soluble human EphB2; for EphB2 Inhibition Percent, Inhibition of Association ONLY: at 3.2 μM and 80 seconds; for EphB2 Inhibition Percent, Inhibition of Association-Dissociation: at 3.2 μM and 580 seconds
Procedure: as §1, §2, §3, §4, §5, §6, §7

EphrinB2-EphB4 = molecular target: T3, EphrinB2-EphB4 (Homo sapiens, UniProt P54760); assay: Octet 80 sec association/500 sec dissociation, immobilized human EphrinB2-Fc binding to soluble human EphB4-His; conditions: immobilized human EphrinB2, 25 nM soluble human EphB4; for EphB4 Inhibition Percent, Inhibition of Association ONLY: at 3.2 μM and 80 seconds; for EphB4 Inhibition Percent, Inhibition of Association-Dissociation: at 3.2 μM and 580 seconds
T3 construct: soluble human EphB1-His, EphB2-His, and EphB4-His ectodomains; commercially available human EphrinB1-Fc (EB1), EphrinB2-Fc (EB2), and EphrinB3-Fc (EB3) ectodomain proteins; purchased
T3 sequence (P54760 16-539 limits assumed): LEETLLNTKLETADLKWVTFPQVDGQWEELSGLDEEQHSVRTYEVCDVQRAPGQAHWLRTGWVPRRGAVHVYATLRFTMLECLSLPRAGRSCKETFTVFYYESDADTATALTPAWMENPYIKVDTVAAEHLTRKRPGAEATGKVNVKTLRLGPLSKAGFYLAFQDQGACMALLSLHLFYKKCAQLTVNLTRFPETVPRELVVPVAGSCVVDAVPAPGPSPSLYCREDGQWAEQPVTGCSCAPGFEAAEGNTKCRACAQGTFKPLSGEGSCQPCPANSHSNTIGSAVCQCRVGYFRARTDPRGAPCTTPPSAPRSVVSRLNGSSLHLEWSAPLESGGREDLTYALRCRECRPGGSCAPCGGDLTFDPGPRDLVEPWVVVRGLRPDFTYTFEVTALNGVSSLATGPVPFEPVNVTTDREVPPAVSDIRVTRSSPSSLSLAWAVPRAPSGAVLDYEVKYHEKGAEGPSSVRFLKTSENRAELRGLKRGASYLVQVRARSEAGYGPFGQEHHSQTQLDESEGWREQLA
Procedure: as §1, §2, §3, §4, §5, §6, §7

[3] = Absolute AUC/IC50, Table A, EphrinB2-EphB2
[4] = Absolute Association IC50 (300 sec), Table A, EphrinB2-EphB2
[5] = Absolute Dissociation IC50 (450 sec), Table A, EphrinB2-EphB2
[6] = Relative AUC/IC50, Table A, EphrinB2-EphB2, compound 7: association only
[7] = Relative Association IC50 (300 sec), Table A, EphrinB2-EphB2
[8] = Relative Dissociation IC50 (450 sec), Table A, EphrinB2-EphB2

Compound	pIC50 (EphrinB2-EphB2 [1]; [3])	pIC50 (EphrinB2-EphB2 [1]; [4])	pIC50 (EphrinB2-EphB2 [1]; [5])	pIC50 (EphrinB2-EphB2 [1]; [6])	pIC50 (EphrinB2-EphB2 [1]; [7])	pIC50 (EphrinB2-EphB2 [1]; [8])	EphB1 Inhibition Percent, Inhibition of Association ONLY (EphrinB2-EphB1)	EphB1 Inhibition Percent, Inhibition of Association-Dissociation (EphrinB2-EphB1)	EphB2 Inhibition Percent, Inhibition of Association ONLY (EphrinB2-EphB2 [2])	EphB2 Inhibition Percent, Inhibition of Association-Dissociation (EphrinB2-EphB2 [2])	EphB4 Inhibition Percent, Inhibition of Association ONLY (EphrinB2-EphB4)	pIC50 (EphrinB2-EphB2 [1]; tetramerization inhibitor IC50 (relative), association step, surmountable tetramer)	EphB4 Inhibition Percent, Inhibition of Association-Dissociation (EphrinB2-EphB4)	tetramerization inhibitor activity (EphrinB2-EphB2 [1])
O=[N+]([O-])c1cc(CN2CCS(=O)(=O)CC2)c2cccnc2c1O [Compound 21, 4-((8-hydroxy-7-nitroquinolin-1-ium-5-yl)methyl)thiomorpholin-4-ium 1,1-dioxide chloride]	5.94 and 5.71	5.76	5.77	~6.00 and 6.05	6.04	5.97 and 6.00	24.0% and 23.8%	36.0% and 28.9%	36.7% and 57.0%	51.7% and 69.2%	0% and 4.3%	–	–	–
Cc1ccc2c(CN3CCOCC3)cc(Br)c(O)c2n1 [Compound 57, 7-bromo-2-methyl-5-(morpholinomethyl)quinolin-8-ol]	< 5.49	< 5.49	< 5.49	5.65	< 5.49	< 5.49	0*%	15.3%	1.4%	20.3%	0*%	< 5.52	8.7%	–
COc1ccc(N2CCN(Cc3cc(I)c(O)c4ncccc34)CC2)cc1 [Compound 74, 7-iodo-5-((4-(4-methoxyphenyl)piperazin-1-yl)methyl)quinolin-8-ol]	6.40	6.25	6.38	–	–	–	47.2%	58.2%	50.6%	70.0%	21.0%	–	43.4%	exhibit strong IC50 values
